Legend:
OATP1C1 = target: T1, OATP1C1 (Homo sapiens, UniProt Q9NYB5); assay: Competitive uptake into U-87MG cells in the presence of OATP1C1 inhibitors diclofenac and flufenamic acid; format: cell-based; settings: 100 μM prodrug; for Cellular uptake in the presence of OATP1C1 inhibitors (DCF and FFA): 100 μM inhibitor, result in words; for Reduction of cellular uptake by DCF: 100 μM diclofenac
T1 construct: human U-87MG cells that expressed OATP1C1, but not other OATPs; endogenous in cells; host or cells: U-87MG human glioma cells
T1 sequence (Q9NYB5 1-712): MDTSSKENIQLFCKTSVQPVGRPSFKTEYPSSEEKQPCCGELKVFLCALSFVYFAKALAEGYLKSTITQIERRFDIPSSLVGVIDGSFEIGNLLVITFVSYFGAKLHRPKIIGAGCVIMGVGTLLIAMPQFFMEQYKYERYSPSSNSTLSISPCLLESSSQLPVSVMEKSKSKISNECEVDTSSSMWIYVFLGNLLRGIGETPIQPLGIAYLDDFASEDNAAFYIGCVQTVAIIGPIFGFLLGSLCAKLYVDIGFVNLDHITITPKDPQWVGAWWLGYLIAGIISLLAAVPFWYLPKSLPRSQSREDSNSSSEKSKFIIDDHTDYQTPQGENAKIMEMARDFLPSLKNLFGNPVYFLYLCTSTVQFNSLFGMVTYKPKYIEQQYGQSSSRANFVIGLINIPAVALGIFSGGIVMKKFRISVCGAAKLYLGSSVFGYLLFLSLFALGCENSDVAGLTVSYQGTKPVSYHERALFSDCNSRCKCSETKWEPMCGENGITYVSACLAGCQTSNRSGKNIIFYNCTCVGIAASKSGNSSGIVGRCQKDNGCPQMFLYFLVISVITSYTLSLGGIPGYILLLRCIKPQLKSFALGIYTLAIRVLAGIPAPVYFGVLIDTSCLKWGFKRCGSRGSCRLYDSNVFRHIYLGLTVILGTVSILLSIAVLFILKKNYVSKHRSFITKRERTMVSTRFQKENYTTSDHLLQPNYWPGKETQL
Experimental: (§1) The competitive uptake in the presence of OATP-inhibitors or competing substrates (100 μM), diclofenac (DFC) and flufenamic acid (FFA), for OATP1C1 and naringin (NRG) for OATP1A2 was carried out as described above with HBSS buffer at pH 7.4 containing 100 μM of the studied compound. The cells were preincubated with the inhibitors for 10 min, and the incubation mixture was removed before adding the studied compound and the inhibitor to the cells. The competitive uptake (30 min) with the inhibitor was then carried out as the normal uptake described above. The concentrations of the studied compounds were analyzed by the HPLC methods described below, calculated from the spiked standard curve, and normalized with the protein concentrations.
(§2) The amount of prodrug 1–8 was determined by the HPLC system, which consisted of an Agilent 1100 binary pump (Agilent Technologies Inc., Wilmington, DE), an 1100 micro vacuum degasser, an HP 1050 Autosampler, and an HP 1050 variable wavelength detector, operated at 230–240 nm. The chromatographic separations were achieved on an Agilent Zorbax SB-C18 analytical column (4.4 mm × 150 mm, 5 μm) (Agilent Technologies Inc., Wilmington, DE) by using isocratic elution of water containing 0.1% formic acid (pH ca. 3.0) and acetonitrile containing 0.1% formic acid with ratios of 50:50, 30:70, 40:60, 50:50, 50:50, 40:60, 40:60, and 30:70 (v/v), respectively, for prodrug 1–8. […] The lower limit of quantification for prodrugs 1–8 was 0.20 μM. These HPLC methods were also accurate, precise, and selective over the range of 0.5–20 μM.

oatp1a4/1a5/1a6 = assay: Competitive uptake into mouse primary astrocytes in the presence of OATP1A2 inhibitor naringin; format: cell-based; settings: 100 μM prodrug, 100 μM NRG, result in words
Experimental: as §1, §2

Row | SMILES | Cellular uptake in the presence of OATP1C1 inhibitors (DCF and FFA) (OATP1C1) | Reduction of cellular uptake by DCF (OATP1C1) | inhibition at 30 min, 100 μM (OATP1C1; human, pH 7.4, with flufenamic acid (FFA) 100 μM, 100 μM flufenamic acid, read-out: Inhibition of cellular uptake by FFA) | Cellular uptake in the presence of OATP1A2 inhibitor naringin (NRG) (oatp1a4/1a5/1a6)
1 | CC(C(=O)Oc1c(I)cc(C[C@H](N)C(=O)O)cc1I)c1ccc(-c2ccccc2)c(F)c1 (mixture of isomers) [Prodrug 7, (2S)-2-Amino-3-(4-((2-(2-fluoro-[1,1′-biphenyl]-4-yl)propanoyl)oxy)-3,5-diiodophenyl)propanoic acid] | significantly reduced | – | – | –
2 | CC(C(=O)Oc1c(I)cc(Oc2c(I)cc(C[C@H](N)C(=O)O)cc2I)cc1I)c1ccc(-c2ccccc2)c(F)c1 (mixture of isomers) [Prodrug 8, (2S)-2-Amino-3-(4-(4-((2-(2-fluoro-[1,1′-biphenyl]-4-yl)propanoyl)oxy)-3,5-diiodophenoxy)-3,5-diiodophenyl)propanoic acid] | significantly reduced | – | – | –
3 | CC(C(=O)Oc1c(I)cc(Oc2c(I)cc(C[C@H](N)C(=O)O)cc2I)cc1I)c1cccc(C(=O)c2ccccc2)c1 (mixture of isomers) [Prodrug 2, (2S)-2-Amino-3-(4-(4-((2-(3-benzoylphenyl)propanoyl)oxy)-3,5-diiodophenoxy)-3,5-diiodophenyl)propanoic acid] | reduced more effectively compared to prodrug 1 | ca. 56% | ~42% | greatest decrease
4 | N[C@@H](Cc1cc(I)c(Oc2cc(I)c(OC(=O)c3ccccc3O)c(I)c2)c(I)c1)C(=O)O [Prodrug 4, (S)-2-Amino-3-(4-(4-((2-hydroxybenzoyl)oxy)-3,5-diiodophenoxy)-3,5-diiodophenyl)propanoic acid] | slightly increased | – | – | –
5 | N[C@@H](Cc1cc(I)c(OC(=O)c2ccccc2O)c(I)c1)C(=O)O [Prodrug 3, (S)-2-Amino-3-(4-((2-hydroxybenzoyl)oxy)-3,5-diiodophenyl)propanoic acid] | not affected significantly | – | – | –

Continued, in another order:

Row | Cellular uptake in the presence of OATP1C1 inhibitors (DCF and FFA) (OATP1C1) | Reduction of cellular uptake by DCF (OATP1C1) | inhibition at 30 min, 100 μM (OATP1C1; human, pH 7.4, with flufenamic acid (FFA) 100 μM, 100 μM flufenamic acid, read-out: Inhibition of cellular uptake by FFA) | SMILES | Cellular uptake in the presence of OATP1A2 inhibitor naringin (NRG) (oatp1a4/1a5/1a6)
6 | affected by DCF but not by FFA | 75% | – | COc1ccc2cc([C@H](C)C(=O)Oc3c(I)cc(Oc4c(I)cc(C[C@H](N)C(=O)O)cc4I)cc3I)ccc2c1 [Prodrug 6, (S)-2-Amino-3-(4-(3,5-diiodo-4-(((S)-2-(6-methoxynaphthalen-2-yl)propanoyl)oxy)phenoxy)-3,5-diiodophenyl)propanoic acid] | increased
7 | affected by DCF but not by FFA | 25% | – | COc1ccc2cc([C@H](C)C(=O)Oc3c(I)cc(C[C@H](N)C(=O)O)cc3I)ccc2c1 [Prodrug 5, (S)-2-Amino-3-(3,5-diiodo-4-(((S)-2-(6-methoxynaphthalen-2-yl)propanoyl)oxy)phenyl)propanoic acid] | increased

Reference: PMC10683023, “Targeting Glial Cells by Organic Anion-Transporting Polypeptide 1C1 (OATP1C1)-Utilizing L-Thyroxine-Derived Prodrugs” (Journal of Medicinal Chemistry, 2023)
